Measured values published in the Deep4Chem optical property database.
Values belong to the compound of their own block, whether it stands above or below them.

Experiment: solvent given as SMILES

emission maximum (in ClCCl): 371 nm
SMILES: Cc1cc2c3ccccc3[nH]c2c2[nH]c3ccccc3c12

emission maximum (in CC#N): 380 nm
SMILES: COc1ccc(C#Cc2ccccc2C#Cc2ccc(OC)cc2)cc1

emission maximum (in CC#N): 519 nm
emission maximum (in CO): 562 nm
SMILES: O=c1c2ccccc2c2c3c(cccc13)c(-c1ccccc1)c1c3cccc4cccc(c43)c12

emission maximum (in CC#N): 422 nm
SMILES: Cc1ccc(-c2ccc(/C=C/c3cccs3)cn2)nc1

emission maximum (in C1CCCCC1): 431 nm
SMILES: Cc1cc(C)c(B2c3cc(C(C)(C)C)ccc3-c3cccc4cc(C(C)(C)C)cc2c34)c(C)c1

emission maximum (in CC(=O)N(C)C): 717 nm
SMILES: CC(C)(C)c1cc(/C2=C3\C=CC(=N3)/C(c3ccc([N+](=O)[O-])cc3)=c3/cc/c([nH]3)=C(\c3ccc([N+](=O)[O-])cc3)C3=N/C(=C(/c4cc(C(C)(C)C)cc(C(C)(C)C)c4)c4cc2c[nH]4)C=C3)cc(C(C)(C)C)c1

emission maximum (in ClCCl): 492 nm
SMILES: F[B-]1(F)n2c(Oc3ccccc3)c(Cl)c3c2C(=C2C(Br)=C(Cl)C(Oc4ccccc4)=[N+]21)Oc1ccccc1-3

emission maximum (in ClCCl): 668 nm
SMILES: CC(C)[Si](C#Cc1ccc(C#Cc2c3cc4ccccc4cc3c(C#C[Si](C(C)C)(C(C)C)C(C)C)c3cc4ccccc4cc23)cc1)(C(C)C)C(C)C

emission maximum (in C1CCOC1): 410 nm
SMILES: Cc1csc(C)c1C1=C(c2c(C)sc(-c3ccc(-c4nc(-c5ccccc5)c(-c5ccccc5)[nH]4)cc3)c2C)C(F)(F)C(F)(F)C1(F)F

emission maximum (in C1CCCCC1): 479 nm
emission maximum (in CC#N): 480 nm
emission maximum (in CO): 474 nm
emission maximum (in ClCCl): 484 nm
emission maximum (in O): 481 nm
SMILES: Oc1ccccc1-c1nc(-c2ccccc2)c2ccccn12

emission maximum (in ClCCl): 455 nm
SMILES: CC(C)[Si](C#Cc1ccc(C#C[Si](C(C)C)(C(C)C)C(C)C)c2nc3c4ccccc4c(=O)c4ccccc4c3nc12)(C(C)C)C(C)C

emission maximum (in CS(C)=O): 565 nm
SMILES: C[N+]1=C(/C=C/C=C2/N(CCC[N+](C)(C)C)c3ccccc3C2(C)C)C(C)(C)c2ccccc21

emission maximum (in ClCCl): 697 nm
SMILES: COc1ccc(-c2c3cc4ccccc4cc3c(C#Cc3ccccc3)c3cc4ccccc4cc23)cc1

emission maximum (in CC#N): 424 nm
emission maximum (in CCCCCC): 375 nm
SMILES: Cc1cccc(C)c1Nc1ccc(/C=C/c2ccccc2)cc1

emission maximum (in CCO): 417 nm
SMILES: O=C(O)CCNc1cccc2ccccc12

emission maximum (in ClCCl): 479 nm
SMILES: COc1ccc(C2=CC(c3ccccc3)=C(c3ccccc3)C2)c2ccccc12

emission maximum (in C1CCOC1): 332 nm
SMILES: F[Si](c1ccccc1)(c1ccccc1)c1cccc2ccccc12

The remaining lines, values behind:

SMILES: CC1(C)c2ccccc2N(c2ccc(C(=O)c3cc(C(=O)c4ccc(N5c6ccccc6C(C)(C)c6ccccc65)cc4)cc(C(=O)c4ccc(N5c6ccccc6C(C)(C)c6ccccc65)cc4)c3)cc2)c2ccccc21
emission maximum (in Cc1ccccc1): 530 nm
emission maximum (in c1ccc2c(c1)c1ccccc1n2-c1ccc(-c2ccc(-n3c4ccccc4c4ccccc43)cc2)cc1): 521 nm

SMILES: N#Cc1ccc(-c2pc3ccccc3s2)cc1 (centres undefined)
emission maximum (in CC#N): 433 nm

SMILES: CCCCCCCCN1c2ccc(C#Cc3ccc(C(F)(F)F)cc3)cc2Sc2cc(C=O)ccc21
emission maximum (in C1CCOC1): 512 nm
emission maximum (in CC#N): 534 nm
emission maximum (in CCCCCC): 490 nm
emission maximum (in CO): 500 nm
emission maximum (in CS(C)=O): 539 nm
emission maximum (in Cc1ccccc1): 509 nm
emission maximum (in ClC(Cl)Cl): 535 nm

SMILES: C(=C\c1ccccn1)/c1ccc(N(c2ccc(/C=C/c3ccccn3)cc2)c2ccc(-c3nc4ccccc4nc3-c3ccc(N(c4ccc(/C=C/c5ccccn5)cc4)c4ccc(/C=C/c5ccccn5)cc4)cc3)cc2)cc1
emission maximum (in C1CCOC1): 548 nm
emission maximum (in Cc1ccccc1): 533 nm

SMILES: O=c1oc2ccccc2nc1-c1ccc(Cl)cc1
emission maximum (in c1ccccc1): 440 nm

SMILES: CCCCCCCCCCCCOc1cc2cc(N(C)C)ccc2cc1C=O
emission maximum (in C1CCOC1): 448 nm
emission maximum (in CC#N): 485 nm
emission maximum (in CCCCCC): 415 nm
emission maximum (in CCO): 521 nm
emission maximum (in CCOC(C)=O): 450 nm
emission maximum (in CS(C)=O): 494 nm
emission maximum (in ClCCl): 469 nm
emission maximum (in O): 504 nm

SMILES: Cc1cc(N(C)C)cc(C)c1/C=C/C=C/c1ccc(C#N)cc1
emission maximum (in CC#N): 599 nm
emission maximum (in CCCCCC): 442 nm
emission maximum (in CCOCC): 527 nm

SMILES: CC(C)[Si](C#Cc1c2ccc(C(C)(C)C)cc2c(C#C[Si](C(C)C)(C(C)C)C(C)C)c2ccc(C(C)(C)C)cc12)(C(C)C)C(C)C
emission maximum (in Cc1ccccc1): 461 nm

SMILES: COc1cc(OC)cc(C2=C(c3cc(OC)c(OC)c(OC)c3)C3=Nc4c(-c5cc(OC)c(OC)c(OC)c5)c(-c5cc(OC)cc(OC)c5)c(-c5ccc(C(C)(C)C)cc5)n4[B-](F)(F)[N+]3=C2c2ccc(C(C)(C)C)cc2)c1
emission maximum (in Cc1ccccc1): 721 nm

SMILES: Cc1nnc(-c2ccc(-n3c4ccccc4c4ccccc43)cc2)o1
emission maximum (in CCO): 440 nm
emission maximum (in Cc1ccccc1): 372 nm

SMILES: C(#Cc1ccccc1)C(C#Cc1ccccc1)=Cc1ccc2cc(C=C(C#Cc3ccccc3)C#Cc3ccccc3)ccc2c1
emission maximum (in ClC(Cl)Cl): 473 nm

SMILES: N#Cc1nc2c3ccc(-n4c5ccccc5c5ccccc54)cc3c3cc(-n4c5ccccc5c5ccccc54)ccc3c2nc1C#N
emission maximum (in C1COCCO1): 568.06 nm
emission maximum (in CCCCCC): 469.61 nm
emission maximum (in Cc1ccccc1): 531 nm
emission maximum (in ClC(Cl)Cl): 612.69 nm
emission maximum (in O=P(c1ccccc1)(c1ccccc1)c1cccc(-c2cc(-n3c4ccccc4c4ccccc43)cc(-n3c4ccccc4c4ccccc43)c2)n1): 560 nm

SMILES: COc1ccc(/C=C/C2=CC(/C=C/c3ccc(OC)c4ccccc34)=[O+][B-](F)(F)O2)c2ccccc12
emission maximum (in CC#N): 651 nm
emission maximum (in CC(C)=O): 622 nm
emission maximum (in CCOC(C)=O): 590 nm
emission maximum (in CCOCC): 587 nm
emission maximum (in ClC(Cl)(Cl)Cl): 561 nm
emission maximum (in ClCCl): 616 nm

SMILES: CCCCCCOc1cc(N(CC)CC)ccc1/C=C/C(=C(C#N)C#N)c1ccc(N(c2ccccc2)c2ccccc2)cc1
emission maximum (in ClCCl): 595 nm

SMILES: COc1cc(N(c2ccc(C=C(C#N)C#N)c(OC)c2)c2ccc(C=C(C#N)C#N)c(OC)c2)ccc1C=C(C#N)C#N
emission maximum (in C1COCCO1): 521 nm
emission maximum (in CC#N): 566 nm
emission maximum (in CC(C)=O): 557 nm
emission maximum (in CCOC(C)=O): 532 nm
emission maximum (in CN(C)C=O): 575 nm
emission maximum (in CO): 551 nm
emission maximum (in Cc1ccccc1): 500 nm
emission maximum (in ClC(Cl)Cl): 514 nm
emission maximum (in ClCCl): 531 nm

SMILES: COC(=O)/C=C/c1ccc2ccc3cccc4ccc1c2c34
emission maximum (in C1CCOC1): 425.5 nm
emission maximum (in C1COCCO1): 422.5 nm
emission maximum (in C=CC#N): 447.5 nm
emission maximum (in CC#N): 450 nm
emission maximum (in CC(C)=O): 438 nm
emission maximum (in CCCCCC): 406.5 nm
emission maximum (in CCOC(C)=O): 423 nm
emission maximum (in CO): 462.5 nm
emission maximum (in Cc1ccccc1): 423 nm
emission maximum (in ClCCl): 442 nm

SMILES: CCn1c(-c2ccc(-c3ccc4c(c3)C3(c5ccccc5-c5ccccc53)c3ccccc3-4)cc2)c(-c2ccc3ccccc3c2)c(-c2ccc3ccccc3c2)c1-c1ccc(-c2ccc3c(c2)C2(c4ccccc4-c4ccccc42)c2ccccc2-3)cc1
emission maximum (in CCOC(C)=O): 441 nm
